Test results published in patent US10106534B2 (CELGENE QUANTICEL RESEARCH, INC., priority 2014, dated 2018).

Molecular target: JMJD2C (Homo sapiens (Human), UniProt Q9H3R0)
Assay: In vitro enzyme inhibition assay for JMJD2C activity (TR-FRET)
Type: biochemical
Details: not given
Procedure: This assay determines the ability of a test compound to inhibit JMJD2C demethylase activity. Baculovirus expressed JMJD2C (GenBank Accession #BC143571, AA 2-372) was purchased from BPS Bioscience (Cat#50105).
The ability of test compounds to inhibit the activity of JMJD2C was determined in 384-well plate format under the following reaction conditions: 0.3 nM JMJD2C, 300 nM H3K9me3-biotin labeled peptide (Anaspec cat #64360), 2 μM alpha-ketoglutaric acid in assay buffer of 50 mM HEPES, pH7.3, 0.005% Brij35, 0.5 mM TCEP, 0.2 mg/ml BSA, 50 μM sodium L-ascorbate, and 2 μM ammonium iron(II) sulfate. Reaction product was determined quantitatively by TR-FRET after the addition of detection reagent Phycolink Streptavidin-allophycocyanin (Prozyme) and Europium-anti-di-methylated histone H3 lysine 9 (H3K9me2) antibody (PerkinElmer) in the presence of 5 mM EDTA in LANCE detection buffer (PerkinElmer) at a final concentration of 50 nM and 1 nM, respectively.
The assay reaction was initiated by the following: 2 μl of the mixture of 900 nM H3K9me3-biotin labeled peptide and 6 μM alpha-ketoglutaric acid with 2 μl of 11-point serial diluted inhibitor in 3% DMSO were added to each well of the plate, followed by the addition of 2 μl of 0.9 nM JMJD2C to initiate the reaction. The reaction mixture was incubated at room temperature for 30 minutes, and terminated by the addition of 6 μl of 5 mM EDTA in LANCE detection buffer containing 100 nM Phycolink Streptavidin-allophycocyanin and 2 nM Europium-anti-H3K9me2 antibody. Plates were read by EnVisionMultilabel Reader in TR-FRET mode (excitation at 320 nm, emission at 615 nm and 665 nm) after 1 hour incubation at room temperature. A ratio was calculated (665/615) for each well and fitted to determine inhibition constant (IC50).

JMJD2C, sequence (Q9H3R0 2-372): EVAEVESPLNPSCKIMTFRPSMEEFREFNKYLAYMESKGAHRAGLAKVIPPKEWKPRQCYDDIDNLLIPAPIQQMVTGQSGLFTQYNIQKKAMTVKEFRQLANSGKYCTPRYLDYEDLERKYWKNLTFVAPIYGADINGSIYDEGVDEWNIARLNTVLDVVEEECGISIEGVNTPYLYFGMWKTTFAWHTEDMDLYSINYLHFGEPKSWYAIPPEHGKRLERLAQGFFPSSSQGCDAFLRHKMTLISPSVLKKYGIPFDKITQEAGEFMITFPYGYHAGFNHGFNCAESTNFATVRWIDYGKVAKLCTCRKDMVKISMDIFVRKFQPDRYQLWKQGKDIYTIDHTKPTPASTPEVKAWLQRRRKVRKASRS

`Cc1c(F)cccc1-c1ccc2c(c1)OCC[C@@H]2CNc1cnccc1C(=O)O` [Example 41, 3-({[(4S)-7-(3-fluoro-2-methylphenyl)-3,4-dihydro-2H-1-benzopyran-4-yl]methyl}amino)pyridine-4-carboxylic acid] and `Cc1ccccc1-c1ccc2c(c1)OCC[C@@H]2CNc1cnccc1C(=O)O` [Example 100, 3-({[(4S)-7-(2-methylphenyl)-3,4-dihydro-2H-1-benzopyran-4-yl]methyl}amino)pyridine-4-carboxylic acid] fall in the same range of IC50: 1 to 10 µM for the first, 1 to 10 µM for the second.

`O=C(O)c1ccncc1NC[C@H]1CCOc2cc(Oc3ccccc3)ccc21` [Example 47, 3-({[(4S)-7-phenoxy-3,4-dihydro-2H-1-benzopyran-4-yl]methyl}amino)pyridine-4-carboxylic acid] and `Cc1ccccc1Sc1ccc2c(c1)OCC[C@@H]2CNc1cnccc1C(=O)O` [Example 50, 3-({[(4S)-7-[(2-methylphenyl)sulfanyl]-3,4-dihydro-2H-1-benzopyran-4-yl]methyl}amino)pyridine-4-carboxylic acid] fall in the same range of IC50: 1 to 10 µM for the first, 1 to 10 µM for the second.

`Cc1ccccc1Oc1ccc2c(c1)CCC[C@@H]2CNc1cnccc1C(=O)O` [Example 57, 3-({[(1S)-6-(2-methylphenoxy)-1,2,3,4-tetrahydronaphthalen-1-yl]methyl}amino)pyridine-4-carboxylic acid] and `O=C(O)c1ccncc1NCC1CCCc2cc(Oc3ccccc3C(F)(F)F)ccc21` (stereo not shown) [Example 62, 3-[({6-[2-(trifluoromethyl)phenoxy]-1,2,3,4-tetrahydronaphthalen-1-yl}methyl)amino]pyridine-4-carboxylic acid] fall in the same range of IC50: 1 to 10 µM for the first, 1 to 10 µM for the second.

First: O=C(O)c1ccncc1NC[C@H]1CCCc2cc(OC(F)F)ccc21 [Example 60, 3-({[(1S)-6-(difluoromethoxy)-1,2,3,4-tetrahydronaphthalen-1-yl]methyl}amino)pyridine-4-carboxylic acid]
Second: CCc1ccc2c(c1)CCC[C@@H]2CNc1cnccc1C(=O)O [Example 90, 3-({[(1S)-6-ethyl-1,2,3,4-tetrahydronaphthalen-1-yl]methyl}amino)pyridine-4-carboxylic acid]
The IC50 of the first is higher: 1 to 10 µM for the first, 0.1 to 1 µM for the second. The second is the more potent here.

`Cc1cccc(Sc2ccc3c(c2)CCC[C@@H]3CNc2cnccc2C(=O)O)c1` [Example 68, 3-({[(1S)-6-[(3-methylphenyl)sulfanyl]-1,2,3,4-tetrahydronaphthalen-1-yl]methyl}amino)pyridine-4-carboxylic acid] and `O=C(O)c1ccncc1NC[C@H]1CCCc2cc(Sc3cccc(F)c3)ccc21` [Example 74, 3-({[(1S)-6-[(3-fluorophenyl)sulfanyl]-1,2,3,4-tetrahydronaphthalen-1-yl]methyl}amino)pyridine-4-carboxylic acid] fall in the same range of IC50: 1 to 10 µM for the first, 1 to 10 µM for the second.

`Cc1ccccc1Sc1ccc2c(c1)CCC[C@@H]2CNc1cnccc1C(=O)O` [Example 70, 3-({[(1S)-6-[(2-methylphenyl)sulfanyl]-1,2,3,4-tetrahydronaphthalen-1-yl]methyl}amino)pyridine-4-carboxylic acid] and `O=C(O)c1ccncc1NC[C@H]1CCCc2cc(Sc3ccccc3F)ccc21` [Example 72, 3-({[(1S)-6-[(2-fluorophenyl)sulfanyl]-1,2,3,4-tetrahydronaphthalen-1-yl]methyl}amino)pyridine-4-carboxylic acid] fall in the same range of IC50: 1 to 10 µM for the first, 1 to 10 µM for the second.

First: O=C(O)c1ccncc1NC[C@@H]1CCCc2cc(Sc3cccc(F)c3)ccc21 [Example 75, 3-({[(1R)-6-[(3-fluorophenyl)sulfanyl]-1,2,3,4-tetrahydronaphthalen-1-yl]methyl}amino)pyridine-4-carboxylic acid]
Second: O=C(O)c1ccncc1NC[C@H]1CCCc2cc(Sc3ccc(F)cc3)ccc21 [Example 76, 3-({[(1S)-6-[(4-fluorophenyl)sulfanyl]-1,2,3,4-tetrahydronaphthalen-1-yl]methyl}amino)pyridine-4-carboxylic acid]
The IC50 of the first is lower: 0.1 to 1 µM for the first, 1 to 10 µM for the second.

First: Cc1ccc(Sc2ccc3c(c2)CCC[C@@H]3CNc2cnccc2C(=O)O)cc1 [Example 78, 3-({[(1S)-6-[(4-methylphenyl)sulfanyl]-1,2,3,4-tetrahydronaphthalen-1-yl]methyl}amino)pyridine-4-carboxylic acid]
Second: Cc1ccc(S(=O)(=O)c2ccc3c(c2)CCC[C@@H]3CNc2cnccc2C(=O)O)cc1 [Example 83, 3-({[(1S)-6-(4-methylbenzenesulfonyl)-1,2,3,4-tetrahydronaphthalen-1-yl]methyl}amino)pyridine-4-carboxylic acid]
The IC50 of the first is higher: 1 to 10 µM for the first, 0.1 to 1 µM for the second. The second is the more potent here.

First: O=C(O)c1ccncc1NC[C@H]1CCCc2cc(S(=O)(=O)c3ccccc3)ccc21 [Example 81, 3-({[(1S)-6-(benzenesulfonyl)-1,2,3,4-tetrahydronaphthalen-1-yl]methyl}amino)pyridine-4-carboxylic acid]
Second: Cc1cccc(S(=O)(=O)c2ccc3c(c2)CCC[C@@H]3CNc2cnccc2C(=O)O)c1 [Example 85, 3-({[(1S)-6-(3-methylbenzenesulfonyl)-1,2,3,4-tetrahydronaphthalen-1-yl]methyl}amino)pyridine-4-carboxylic acid]
The IC50 of the first is lower: 0.1 to 1 µM for the first, 1 to 10 µM for the second. The first is the more potent here.

Compared with `O=C(O)c1ccncc1NCC1CCCc2cc(S(=O)(=O)c3cccc(F)c3)ccc21` (stereo not shown) [Example 87, 3-({[6-(3-fluorobenzenesulfonyl)-1,2,3,4-tetrahydronaphthalen-1-yl]methyl}amino)pyridine-4-carboxylic acid], `Cc1cccc(N(C)c2ccc3c(c2)CCC[C@H]3CNc2cnccc2C(=O)O)c1` [Example 143, 3-({[(1R)-6-[methyl(3-methylphenyl)amino]-1,2,3,4-tetrahydronaphthalen-1-yl]methyl}amino)pyridine-4-carboxylic acid] is higher in IC50: 0.1 to 1 µM for the first, 1 to 10 µM for the second. The first is the more potent here.

`COc1cc2c(cc1F)[C@@H](CNc1cnccc1C(=O)O)CCC2` [Example 96, 3-({[(1S)-7-fluoro-6-methoxy-1,2,3,4-tetrahydronaphthalen-1-yl]methyl}amino)pyridine-4-carboxylic acid] and `COc1ccc2c(c1C)CCC[C@@H]2CNc1cnccc1C(=O)O` [Example 98, 3-({[(1S)-6-methoxy-5-methyl-1,2,3,4-tetrahydronaphthalen-1-yl]methyl}amino)pyridine-4-carboxylic acid] fall in the same range of IC50: 0.1 to 1 µM for the first, 0.1 to 1 µM for the second.

`COc1ccc(Cl)c(-c2ccc3c(c2)OCC[C@H]3CNc2cnccc2C(=O)O)c1` [Example 107, 3-({[(4R)-7-(2-chloro-5-methoxyphenyl)-3,4-dihydro-2H-1-benzopyran-4-yl]methyl}amino)pyridine-4-carboxylic acid] and `COc1cc(F)ccc1-c1ccc2c(c1)OCC[C@H]2CNc1cnccc1C(=O)O` [Example 118, 3-({[(4R)-7-(4-fluoro-2-methoxyphenyl)-3,4-dihydro-2H-1-benzopyran-4-yl]methyl}amino)pyridine-4-carboxylic acid] fall in the same range of IC50: 0.1 to 1 µM for the first, 0.1 to 1 µM for the second.

`O=C(O)c1ccncc1NC[C@@H]1CCCc2cc(N3CCOc4ccccc43)ccc21` [Example 108, 3-({[(1R)-6-(3,4-dihydro-2H-1,4-benzoxazin-4-yl)-1,2,3,4-tetrahydronaphthalen-1-yl]methyl}amino)pyridine-4-carboxylic acid] and `CN(c1ccc2c(c1)CCC[C@H]2CNc1cnccc1C(=O)O)c1ccc2occc2c1` [Example 137, 3-({[(1R)-6-[(1-benzofuran-5-yl)(methyl)amino]-1,2,3,4-tetrahydronaphthalen-1-yl]methyl}amino)pyridine-4-carboxylic acid] fall in the same range of IC50: 1 to 10 µM for the first, 1 to 10 µM for the second.

Compared with `CN(c1ccc2c(c1)CCC[C@H]2CNc1cnccc1C(=O)O)C1CCOCC1` [Example 113, 3-({[(1R)-6-[methyl(oxan-4-yl)amino]-1,2,3,4-tetrahydronaphthalen-1-yl]methyl}amino)pyridine-4-carboxylic acid], `CN(c1ccc(C(F)(F)F)cc1)c1ccc2c(c1)OCC[C@H]2CNc1cnccc1C(=O)O` [Example 128, 3-({[(4R)-7-{methyl[4-(trifluoromethyl)phenyl]amino}-3,4-dihydro-2H-1-benzopyran-4-yl]methyl}amino)pyridine-4-carboxylic acid] is higher in IC50: 0.1 to 1 µM for the first, 1 to 10 µM for the second. The first is the more potent here.

First: O=C(O)c1ccncc1NCC1CCOc2cc(N(CC(F)(F)F)c3ccccc3)ccc21 (stereo not shown) [Example 129, 3-[({7-[phenyl(2,2,2-trifluoroethyl)amino]-3,4-dihydro-2H-1-benzopyran-4-yl}methyl)amino]pyridine-4-carboxylic acid]
Second: O=C(O)c1ccncc1NCC1NCCc2ccccc21 (stereo not shown) [Example 149, 3-[(1,2,3,4-tetrahydroisoquinolin-1-ylmethyl)amino]pyridine-4-carboxylic acid]
The IC50 of the first is higher: 1 to 10 µM for the first, 0.1 to 1 µM for the second.

Same assay, conditions: R-enantiomer vs S-enantiomer

`O=C(O)c1ccncc1NC[C@@H]1CCOc2cc(-c3ccccc3)ccc21` [Example 84 of U.S. Pat. No. 8,952,151, 3-({[(4R)-7-phenyl-3,4-dihydro-2H-1-benzopyran-4-yl]methyl}amino)pyridine-4-carboxylic acid, reference compound] was tested, and the “fold more potent for JMJD2C than the S-enantiomer” value was “about 6 fold”.
